This passage reports dissociation constant results from publication PMC5519977, “Redox-dependent substrate-cofactor interactions in the Michaelis-complex of a flavin-dependent oxidoreductase” (Nature Communications, 2017).

T1 sequence (Q3ZDM6 entry or part of it): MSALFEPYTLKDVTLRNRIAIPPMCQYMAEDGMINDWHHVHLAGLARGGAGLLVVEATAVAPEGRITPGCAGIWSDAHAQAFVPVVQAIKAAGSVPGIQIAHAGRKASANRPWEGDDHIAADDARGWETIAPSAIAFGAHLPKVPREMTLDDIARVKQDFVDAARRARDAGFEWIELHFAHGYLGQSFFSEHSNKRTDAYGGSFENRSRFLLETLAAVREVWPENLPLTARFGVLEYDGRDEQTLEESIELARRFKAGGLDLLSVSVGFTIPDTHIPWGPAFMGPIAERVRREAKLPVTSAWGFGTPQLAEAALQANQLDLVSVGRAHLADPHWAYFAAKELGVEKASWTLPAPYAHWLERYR

The assay concerns the target T1, xenobiotic reductase A (XenA) (Pseudomonas putida, UniProt Q3ZDM6).
T1 construct: recombinant in E. coli Rosetta (DE3), pET28a; N-terminal His-tag removed with TEV protease; reconstituted with FMN
The experiment in a line: stopped-flow reoxidation of reduced enzyme. It counts as biochemical. To be noted: reduced enzyme (FMNH-), anoxic, 50 mM Tris/HCl pH 8.0, 25 °C.
Consider `O=c1ccc2cccc(O)c2o1` [8-hydroxycoumarin], for which the dissociation constant entry was “dissociation constants of the reduced Michaelis complexes for the respective substrates”.
For the compound `O=c1ccc2ccc(O)cc2o1` [7-hydroxycoumarin], the dissociation constant entry is recorded as “dissociation constants of the reduced Michaelis complexes for the respective substrates”.
Consider `O=c1ccc2ccccc2o1` [coumarin], for which the dissociation constant entry is reported as “dissociation constants of the reduced Michaelis complexes for the respective substrates”.
